Structures can show the parent of a compound that is named as a salt.

In general, Ki refers to the equilibrium dissociation constant of an inhibitor or competing ligand from its target.

The target in one series is mammalian LDH. The following applies: reference (47); read-out: Ki value of oxamate for mammalian LDH; cited from earlier work.
The conditions of series [1]: reference (44); cited from earlier work.
For series [2], the system named is nasopharyngeal carcinoma cells / normal nasopharyngeal epithelial cells. The following applies: reference (44); cited from earlier work.
In series [3] the test system is HPV+E6E7 Ras tumor (E6/E7/Ras MOEs cells). Put plainly: Tumor response to cisplatin/radiation therapy (CRT), HPV positive HNSCC mouse model. Format: in vivo, C57Bl/6 mice. The following applies: oxamate 15 mg/mouse; for tumor's response to CRT (tumor volume, FIG. 18): DCA 6 mg/mouse, daily i.p. on weekdays from day 11, with CRT. The method, then:
FIG. 7 illustrates the effects of DCA plus oxamate on tumor growth (A) or on survival (B) with HPV+ model of HNSCC in wild-type C57Bl/6 mice. All mice received 3 rounds of cisplatin (0.132 mg/mouse) plus radiation (8 Gy/mouse) treatment (Tx) at weekly intervals starting […] after tumor initiation. Mice receiving DCA (6 mg/mouse) plus oxamate (15 mg/mouse) were treated every weekday, starting with the first chemoradiation treatment by i.p. injection.
FIG. 8 illustrates a comparison of prodrugs to DCA plus oxamate on tumor growth (A) or on survival (B) with HPV+ model of HNSCC in wild-type C57Bl/6 mice. All mice received 3 rounds of CRT [cisplatin (0.132 mg/mouse) plus radiation (8 Gy/mouse) treatment (Tx) at weekly intervals starting 11 days after tumor initiation]. Mice receiving DCA (6 mg/mouse) plus oxamate (2.2 mg/mouse) were treated every weekday starting with the first chemoradiation treatment by i.p. injection. Mice treated with AT-N4-001 or AT-N4-002 prodrugs (7.6 mg/mouse) were treated on the same schedule as mice treated with DCA+oxamate.
FIG. 18. The effects of DCA, oxamate, DCA plus oxamate on the responses of HPV+E6E7 Ras tumor to CRT. One million E6/E7/Ras MOEs cells were injected subcutaneously into the rear leg of wild-type C57Bl/6 mice. After 11 days, a treatment with DCA (6 mg/mouse) and oxamate (15 mg/mouse) were injected daily by i.p. on weekdays for the remainder of the experiment. All mice received three rounds of treatment with CRT (0.132 mg/mouse cisplatin and 8 Gy radiation, weekly starting at day 11). Tumor volume is mm^3.
FIG. 19 depicts the effects of DCA plus oxamate vs the effects of prodrug 1 or prodrug 2 on the responses of HPV+E6E7 Ras tumor to CRT. Tumors were initiated by injecting 0.5×10^6 E6/E7/Ras MOEs cells. After 11 days, a treatment with DCA (6 mg/mouse) plus oxamate (2 mg/mouse), or prodrug 1 (7.6 mg/mouse), or prodrug 2 (7.6 mg/mouse) was initiated daily by i.p. on weekdays. The doses of DCA and oxamate were equal molar equivalents as would be released from the prodrugs. All mice received three rounds of treatment with CRT (0.132 mg/mouse cisplatin and 8 Gy radiation, weekly starting at day 11). Tumor volume is in mm^3.
The effects of various treatments on tumor responses were carried out by examining whether the treatment could improve tumor's response to CRT with a HPV positive HNSCCs mouse model. CRT is a standard treatment for HPV-positive HNSCC in the clinic (46). […] Applicants also used this model to investigate the effects of lactate on CRT-induced immune-mediated cancer clearance (46) and DCA's effect on the tumor's response to CRT (unpublished data). The literature reported dosages of DCA and oxamate were used (6,23,52,53)(41).
To study the effects of the prodrugs on tumor growth in vivo, C57Bl/6 immune-competent mice implanted with E6/E7/Ras MOEs cells were used as described previously (46). All experiments were performed in accordance with institutional and national guidelines and regulations with the protocol approved by the Animal Care and Use Committee at Sanford Research. Briefly, 1×10^6 tumor HPV+HNSCC cells were injected into the right subcutaneous flank of syngeneic male C57Bl/6 mice. Eleven days after tumor initiation, treatment was initiated daily on weekdays by i.p. injection of vehicle, DCA, Oxamate, DCA+oxamate, prodrug 1, or prodrug 2. All mice received three rounds of treatment with cisplatin/radiation therapy (CRT: 0.132 mg/mouse cisplatin and 8 Gy radiation, weekly starting at day 11). Tumor dimensions were measured weekly to monitor growth. Mice with tumors reaching a volume of 3000 mm^3 or becoming substantially emaciated were euthanized.
To study the effects of the new prodrugs on tumor growth in vivo, C57Bl/6 immune-competent mice were used. Tumors were established on the right flank of the leg. After 11 days, treatment was initiated with daily i.p. injection of vehicle, AT-N4-001, or AT-N4-002. […]

The conditions of series [4]: clinical use, reference (24); cited from earlier work.
A further series deals with PDK. The following applies: reported (26); read-out: Ki value of DCA for PDK; cited from earlier work.
In another series the test system is E6E7/Ras MTE cells. Put plainly: Clonogenic growth (colony formation). The series is classed as cell-based, mouse. The following applies: 5 mM prodrugs, 10 mM DCA, 7 days, vs DMSO. The method, then:
FIG. 4 illustrates prodrugs AT-N4-001 and AT-N4-002 inhibiting cell proliferation and colony growth of E6E7/Ras MTE cells. (A) E6E7/Ras MTE cultures were treated with DMSO (Con), AT-N4-001, or AT-N4-[…] 002 at the indicated concentration for one day. Live cell number was then determined using a trypan blue exclusion assay. (B) E6E7/Ras MTE cells were seeded on 100-mm plate at 500 cells per plate (in triplicate). After one day, cells were treated as indicated and allowed to grow until colonies of untreated controls reached 50 or more cells (7 days). Plates were stained with Coomassie blue to visualize the colonies. (C) Quantification of colonies described in B. Colonies with more than 15 cells were counted.
E6E7/Ras MTE cells are mouse tonsilar epithelial cells that have been transformed by HPV oncogenes E6 and E7 together with activated ras. They form tumors in mice and are a model of human HPV+HNSCC. These cells were treated in culture with either vehicle control (DMSO), AT-N4-001, or AT-N4-002 at concentrations of 1 mM, 2.5 mM and 5 mM for one day. Live cells were counted using a hemocytometer (FIG. 4A). […] The effects of the compounds on clonogenic growth of the cells were also tested. E6/E7/Ras MTE cells were seeded in 100 mm plates in triplicate, and the next day cells were treated with either vehicle control DMSO, 5 mM AT-N4-001, 5 mM AT-N4-002, or 10 mM DCA. DCA was used at a twice the concentration because the prodrugs each carry two molecules of DCA.

Another series concerns E6E7/Ras cells. Put plainly: Lactate secretion into culture medium, enzyme based assay. The series is classed as cell-based, mouse. The following applies: 5 mM each, 4 hours. The method, then:
FIG. 5 illustrates the reduction of lactate secretion in cultured cells by prodrugs AT-N4-001 and AT-N4-002. E6E7Ras cells were plated in 100 mm dishes and grown to confluence. The medium was changed to bicarbonate-free DMEM-10% FBS with or without the indicated treatments (5 mM each). Four hours later the medium was collected and lactate was measured using an enzyme based assay from Eton Bioscience. Con indicates the control samples for the DCA and Oxamate samples. DMSO indicates the vehicle only control for the AT-N4-001 and AT-N4-002 prodrug samples.
AT-N4-001 and AT-N4-002 should each release two molecules of DCA and one molecule of oxamate. Both DCA and oxamate are expected to reduce cellular lactate production. Therefore, we examined the changes in lactate after treatment of E6E7/Ras cells with the prodrugs. E6E7/Ras cells were seeded into 100 mm dishes and the next day treated with 5 mM AT-N4-001, 5 mM AT-N4-002, 5 mM DCA plus 5 mM oxamate, or 5 mM DCA alone. Culture medium was collected after 4 hours of treatment and lactate levels were determined (FIG. 5). […] To confirm the effects of these compounds on lactate production, the extra cellular acidification rate (ECAR) was measured using a Seahorse XF24 Extracellular Flux analyzer. Since lactate is transported from cells together with a proton, acidification of the culture medium (ECAR) is an estimate of lactate production and the glycolytic rate of cells. In the experiment shown in FIG. 6A, ECAR measurements were initiated in the absence of glucose. At point A, glucose was added and ECAR measurements continued. […] At point B, additional glucose along with vehicle (control), DCA plus oxamate, or AT-N4-002 was added. […] This is shown by a bar graph in FIG. 6B.

Regarding `NC(=O)C(=O)O` [oxamate, oxamic acid sodium salt], the Ki at mammalian LDH was 116 µM. The tolerability in mice entry in series [1] is “well tolerated”. Besides, in series [2], the “nasopharyngeal carcinoma cell proliferation in vitro and in vivo” value is “significant suppression”; the “toxicity to normal nasopharyngeal epithelial cells in vitro” value is recorded as “minimum toxicity”. For the same compound, in series [3], the “tumor's response to CRT (tumor volume, FIG. 18)” value is reported as “improved tumor's response to CRT”.
As to `O=C([O-])C(Cl)Cl.[Na+]` [DCA, dichloroacetic acid sodium salt, reference compound], the “clinical safety and tolerability” value in series [4] is “safe and well tolerated with relatively modest toxicities”. The Ki on PDK was 10 to 250 µM. For the same compound, in series [3], the “tumor's response to CRT (tumor volume, FIG. 18)” value is given as “improved tumor's response to CRT”. In series [3] (FIG. 18, DCA 6 mg/mouse, with CRT), the “effectiveness of DCA versus oxamate in improving response to CRT” value is “more effective than oxamate”. Also, the “colony size (FIG. 4B)” value in the series on E6E7/Ras MTE cells is listed as “approximately equal reductions in colony size”. Besides, the “lactate production (culture medium, FIG. 5)” value with E6E7/Ras cells is reported as “reduces lactate production but to a lesser extent than the prodrugs”.
